Data from ChEMBL document CHEMBL5236606, “Synthesis, Structure-Activity Relationships, and In Vivo Evaluation of Novel C-17 Amine Derivatives Based on GSK3640254 as HIV-1 Maturation Inhibitors with Broad Spectrum Activity” (J Med Chem, 2022).
≈ marks a conversion by molar mass, not a printed value.

Experiments:
[1] = tested on: Human immunodeficiency virus 1; assay: Antiviral activity against wild type HIV-1 NLRepRlucP373S harboring V370A mutant infected in human MT2 cells assessed as inhibition of viral growth measured after 4 to 5 days by Dual luciferase reporter assay; format: functional, organism-based; details: Human immunodeficiency virus 1, NLRepRlucP373S
[2] = tested on: Human immunodeficiency virus 1; assay: Antiviral activity against wild type HIV-1 NLRepRlucP373S harboring deltaV370 mutant infected in human MT2 cells assessed as inhibition of viral growth measured after 4 to 5 days by Dual luciferase reporter assay; format: functional, organism-based; details: Human immunodeficiency virus 1, NLRepRlucP373S
[3] = tested on: Human immunodeficiency virus 1; assay: Antiviral activity against wild type HIV-1 NLRepRlucP373S infected in human MT2 cells assessed as inhibition of viral growth measured after 4 to 5 days by Dual luciferase reporter assay; format: functional, organism-based; details: Human immunodeficiency virus 1, NLRepRlucP373S
[4] = tested on: Human immunodeficiency virus 1; assay: Antiviral activity against wild type HIV-1 NLRepRlucP373S infected in human MT2 cells assessed as inhibition of viral growth measured after 4 to 5 days in presence of 10% FBS and 40% human serum supplemented with 27 mg/mL of human serum albumin by Dual luciferase reporter assay; format: functional, organism-based; details: Human immunodeficiency virus 1, NLRepRlucP373S
[5] = tested on: Human immunodeficiency virus 1; assay: Antiviral activity against wild type HIV-1 NLRepRlucP373S harboring T332S/V362I/prR41G mutant infected in human MT2 cells assessed as inhibition of viral growth measured after 4 to 5 days by Dual luciferase reporter assay; format: functional, organism-based; details: Human immunodeficiency virus 1, NLRepRlucP373S
[6] = tested on: Human immunodeficiency virus 1; assay: Antiviral activity against wild type HIV-1 NLRepRlucP373S harboring V362I/V370A mutant infected in human MT2 cells assessed as inhibition of viral growth measured after 4 to 5 days by Dual luciferase reporter assay; format: functional, organism-based; details: Human immunodeficiency virus 1, NLRepRlucP373S
[7] = Fold resistance, ratio of EC50 for antiviral activity against wild type HIV-1 NLRepRlucP373S infected in human MT2 cells assessed as inhibition of viral growth in presence of 10% FBS and 40% human serum supplemented with 27mg/mL of human serum albumin to EC50 for antiviral activity against wild type HIV-1 NLRepRlucP373S infected in human MT2 cells assessed as inhibition of viral growth; format: functional, Human immunodeficiency virus 1
[8] = Cytotoxicity against human MT2 cells assessed as reduction in cell viability; format: toxicity, cell-based
[9] = tested on: Human immunodeficiency virus 1; assay: Antiviral activity against wild type HIV-1 NLRepRlucP373S harboring A326T/V362I/V370A mutant infected in human MT2 cells assessed as inhibition of viral growth measured after 4 to 5 days by Dual luciferase reporter assay; format: functional, organism-based; details: Human immunodeficiency virus 1, NLRepRlucP373S
[10] = tested on: Human immunodeficiency virus 1; assay: Antiviral activity against wild type HIV-1 NLRepRlucP373S harboring R361K/V362I/L363M mutant infected in human MT2 cells assessed as inhibition of viral growth measured after 4 to 5 days by Dual luciferase reporter assay; format: functional, organism-based; details: Human immunodeficiency virus 1, NLRepRlucP373S
[11] = Metabolic stability in human liver microsomes assessed as half life at 0.5 uM in presence of NADPH by LC-MS/MS analysis; format: ADME, Microsome
[12] = Metabolic stability in rat liver microsomes assessed as half life at 0.5 uM in presence of NADPH by LC-MS/MS analysis; format: ADME, Microsome
[13] = Metabolic stability in dog liver microsomes assessed as half life at 0.5 uM in presence of NADPH by LC-MS/MS analysis; format: ADME, Canis lupus familiaris, Microsome
Albumin = Albumin (Homo sapiens, UniProt P02768); assay: Protein binding in human serum albumin assessed as fraction bound at 53 nM incubated for 1 hrs by ultracentrifugation method; format: ADME, cell-free; details: read-out: PPB (converted)
Albumin, sequence (P02768 whole entry): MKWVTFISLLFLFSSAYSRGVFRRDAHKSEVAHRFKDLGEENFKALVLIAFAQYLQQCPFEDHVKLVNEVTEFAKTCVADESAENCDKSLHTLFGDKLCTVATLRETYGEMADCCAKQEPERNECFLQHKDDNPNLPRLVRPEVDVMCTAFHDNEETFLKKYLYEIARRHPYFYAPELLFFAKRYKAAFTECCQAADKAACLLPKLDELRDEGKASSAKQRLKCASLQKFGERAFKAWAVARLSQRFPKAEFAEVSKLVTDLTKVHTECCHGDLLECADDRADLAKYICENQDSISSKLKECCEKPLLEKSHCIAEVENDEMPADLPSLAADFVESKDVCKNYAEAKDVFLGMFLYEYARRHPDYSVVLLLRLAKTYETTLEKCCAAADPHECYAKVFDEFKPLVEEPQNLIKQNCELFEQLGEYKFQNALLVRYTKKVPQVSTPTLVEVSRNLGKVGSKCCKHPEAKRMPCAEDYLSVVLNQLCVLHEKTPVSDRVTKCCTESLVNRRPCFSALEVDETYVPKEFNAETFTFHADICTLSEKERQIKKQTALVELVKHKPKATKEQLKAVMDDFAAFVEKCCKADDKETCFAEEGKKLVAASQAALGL

[14] = Solubility of compound in FaSSIF at pH 6.5; format: ADME
[15] = Solubility of the compound in FeSSIF at pH 5.0; format: ADME
[16] = Clearance in Sprague-Dawley rat at 1 mg/kg, iv by LC-MS/MS analysis; format: ADME, organism-based; details: in vivo
[17] = Volume of distribution at steady state in Sprague-Dawley rat at 1 mg/kg, iv by LC-MS/MS analysis; format: ADME, organism-based; details: in vivo, read-out: Vdss
[18] = Half life in Sprague-Dawley rat at 1 mg/kg, iv by LC-MS/MS analysis; format: ADME, organism-based; details: in vivo
[19] = MRT in Sprague-Dawley rat at 1 mg/kg, iv by LC-MS/MS analysis; format: ADME, organism-based; details: in vivo
[20] = AUCt in Sprague-Dawley rat at 5 mg/kg, po by LC-MS/MS analysis; format: ADME, organism-based; set-up: dose 5 mg/kg, route po; details: in vivo
[21] = Cmax in Sprague-Dawley rat at 5 mg/kg, po by LC-MS/MS analysis; format: ADME, organism-based; set-up: dose 5 mg/kg, route po; details: in vivo
[22] = Oral bioavailability in Sprague-Dawley rat at 5 mg/kg by LC-MS/MS analysis; format: ADME, organism-based; details: in vivo
[23] = Clearance in Beagle dog at 1 mg/kg, iv by LC-MS/MS analysis; format: ADME, organism-based, Canis lupus familiaris; details: in vivo
[24] = Volume of distribution at steady state in Beagle dog at 1 mg/kg, iv by LC-MS/MS analysis; format: ADME, organism-based, Canis lupus familiaris; details: in vivo, read-out: Vdss
[25] = Half life in Beagle dog at 1 mg/kg, iv by LC-MS/MS analysis; format: ADME, organism-based, Canis lupus familiaris; details: in vivo
[26] = MRT in Beagle dog at 1 mg/kg, iv by LC-MS/MS analysis; format: ADME, organism-based, Canis lupus familiaris; details: in vivo
[27] = AUCt in Beagle dog at 5 mg/kg, po administered as solution in 98% citrate buffer/2% sulfobutylether-beta-cyclodextrin by LC-MS/MS analysis; format: ADME, organism-based, Canis lupus familiaris; set-up: dose 5 mg/kg, route po; details: in vivo
[28] = Cmax in Beagle dog at 5 mg/kg, po administered as solution in 98% citrate buffer/2% sulfobutylether-beta-cyclodextrin by LC-MS/MS analysis; format: ADME, organism-based, Canis lupus familiaris; set-up: dose 5 mg/kg, route po; details: in vivo
[29] = Oral bioavailability in Beagle dog at 5 mg/kg administered as solution in 98% citrate buffer/2% sulfobutylether-beta-cyclodextrin by LC-MS/MS analysis; format: ADME, organism-based, Canis lupus familiaris; details: in vivo
[30] = AUCt in Beagle dog at 5 mg/kg, po administered as spray-dried dispersion in 99.5% water/0.5% methocel E4M by LC-MS/MS analysis; format: ADME, organism-based, Canis lupus familiaris; set-up: dose 5 mg/kg, route po; details: in vivo
[31] = Cmax in Beagle dog at 5 mg/kg, po administered as spray-dried dispersion in 99.5% water/0.5% methocel E4M by LC-MS/MS analysis; format: ADME, organism-based, Canis lupus familiaris; set-up: dose 5 mg/kg, route po; details: in vivo
[32] = Oral bioavailability in Beagle dog at 5 mg/kg administered as spray-dried dispersion in 99.5% water/0.5% methocel E4M by LC-MS/MS analysis; format: ADME, organism-based, Canis lupus familiaris; details: in vivo
[33] = Protein binding in human plasma by ultracentrifugation method; format: ADME, cell-free; details: read-out: PPB

SMILES: C=C(C)[C@@H]1CC[C@]2(C(=O)NCCO)CC[C@]3(C)[C@H](CC[C@@H]4[C@@]5(C)CC=C(c6ccc(C(=O)O)cc6)C(C)(C)[C@@H]5CC[C@]43C)[C@@H]12
- EC50 [1]: 41 nM
- EC50 [2]: > 2000 nM

SMILES: C=C(C)[C@@H]1CC[C@]2(C(=O)NCCOC)CC[C@]3(C)[C@H](CC[C@@H]4[C@@]5(C)CC=C(c6ccc(C(=O)O)cc6)C(C)(C)[C@@H]5CC[C@]43C)[C@@H]12
- EC50 [1]: 152 nM

SMILES: C=C(C)[C@@H]1CC[C@]2(NCC[C@]3(O)CC[C@](C)(O)CC3)CC[C@]3(C)[C@H](CC[C@@H]4[C@@]5(C)CC=C(C6=CC[C@](CF)(C(=O)O)CC6)C(C)(C)[C@@H]5CC[C@]43C)[C@@H]12
- EC50 [3]: 2.1 nM
- EC50 [4]: 13 nM
- EC50 [2]: 6 nM
- EC50 [5]: 8.1 nM
- EC50 [6]: 3.8 nM
- fold change (FC) [7]: 6.3
- CC50 [8]: 16000 nM
- EC50 [9]: 8 nM
- EC50 [10]: 5.1 nM
- half-life at 0.5 µM [11]: > 2 h
- half-life at 0.5 µM [12]: > 2 h
- half-life at 0.5 µM [13]: > 2 h
- fraction unbound at 1 h, 0.053 µM (Albumin): 0.11
- solubility [14]: < 1 µM
- solubility [15]: > 480 µM
- clearance [16]: 3.7 mL/min/kg
- Vd [17]: 0.8 L/kg
- half-life [18]: 3.9 h
- MRT [19]: 3.6 h
- AUC(0-t) [20]: 6.19 µM·h
- Cmax [21]: 720 nM
- bioavailability [22]: 20%

SMILES: C=C(C)[C@@H]1CC[C@]2(NCCC3(O)COC3)CC[C@]3(C)[C@H](CC[C@@H]4[C@@]5(C)CC=C(C6=CC[C@](CF)(C(=O)O)CC6)C(C)(C)[C@@H]5CC[C@]43C)[C@@H]12
- EC50 [3]: 1.7 nM
- EC50 [4]: 17 nM
- EC50 [2]: 5.3 nM
- EC50 [5]: 7 nM
- EC50 [6]: 4.1 nM
- fold change (FC) [7]: 10
- CC50 [8]: 18000 nM
- EC50 [9]: 6.6 nM
- EC50 [10]: 6.1 nM
- half-life at 0.5 µM [11]: > 2 h
- half-life at 0.5 µM [12]: 1.33 h
- half-life at 0.5 µM [13]: > 2 h
- fraction unbound at 1 h, 0.053 µM (Albumin): 0.12
- solubility [14]: 4 µM (≈ 2.66 µg/mL)
- solubility [15]: 32 µM (≈ 21.3 µg/mL)
- clearance [16]: 6.5 mL/min/kg
- Vd [17]: 1 L/kg
- half-life [18]: 3.6 h
- MRT [19]: 2.7 h
- AUC(0-t) [20]: 27.3 µM·h
- Cmax [21]: 3860 nM
- bioavailability [22]: 140%

SMILES: C=C(C)[C@@H]1CC[C@]2(NCC[C@]3(O)CC[C@@H](S(C)(=O)=O)CC3)CC[C@]3(C)[C@H](CC[C@@H]4[C@@]5(C)CC=C(C6=CC[C@](CF)(C(=O)O)CC6)C(C)(C)[C@@H]5CC[C@]43C)[C@@H]12
- EC50 [3]: 1.6 nM
- EC50 [4]: 9.3 nM
- EC50 [1]: 3 nM
- EC50 [2]: 5.1 nM
- EC50 [5]: 6.4 nM
- EC50 [6]: 2 nM
- fold change (FC) [7]: 5.8
- CC50 [8]: 21000 nM
- EC50 [9]: 4.3 nM
- EC50 [10]: 4.5 nM
- half-life at 0.5 µM [11]: 1.38 h
- half-life at 0.5 µM [12]: 1.42 h
- half-life at 0.5 µM [13]: > 2 h
- fraction unbound at 1 h, 0.053 µM (Albumin): 0.11
- solubility [14]: 21 µM (≈ 16.2 µg/mL)
- solubility [15]: > 700 µM
- clearance [16]: 3.5 mL/min/kg
- Vd [17]: 0.8 L/kg
- half-life [18]: 4.2 h
- MRT [19]: 3.8 h
- AUC(0-t) [20]: 8.11 µM·h
- Cmax [21]: 830 nM
- bioavailability [22]: 24%
- clearance [23]: 0.38 mL/min/kg
- Vd [24]: 0.31 L/kg
- half-life [25]: 13.4 h
- MRT [26]: 13.2 h
- AUC(0-t) [27]: 23.3 µM·h
- Cmax [28]: 1610 nM
- bioavailability [29]: 21%
- AUC(0-t) [30]: 35.3 µM·h
- Cmax [31]: 1960 nM
- bioavailability [32]: 31%

SMILES: C=C(C)[C@@H]1CC[C@]2(C(=O)O)CC[C@]3(C)[C@H](CC[C@@H]4[C@@]5(C)CC[C@H](OC(=O)CC(C)(C)C(=O)O)C(C)(C)[C@@H]5CC[C@]43C)[C@@H]12 [BEVIRIMAT]
- fraction unbound [33]: < 0.001
- fold change (FC) [7]: 97
